According to patent US20240292836A1, “AGENTS FOR REPELLING, KNOCKING DOWN, AND/OR KILLING BLOOD-SUCKING ARTHROPODS AND USES THEREOF” (The United States of America, as represented by the …, priority 2023, published 2024):
Where “and” joins values, the source holds several entries; their conditions need not be identical. Equal values may be shown once. Entries after “also recorded” stand apart in the source; their conditions may differ.

Columns and labels:
[1] = tested on: female Aedes aegypti adults; assay: Arm-in-cage cloth-patch in vivo assay (topical repellency); conditions: for Minimum Effective Dose (MED): Mean ± SEM, lowest dosage with five or fewer bites through repellent-treated cloth in 1-minute exposure, at least three volunteers; for topical repellency (in words): initial screening dose of 0.187 mg/cm^2
From the text: Arm-in-Cage Test Cloth-Patch in vivo Assay Pyrethroid-susceptible yellow fever mosquitoes Ae. aegypti (Orlando strain) were reared in the United States Department of Agriculture Mosquito and Fly Research Unit in Gainesville, FL under standard protocols. Three to seven-day-old, starved female mosquitoes were collected using a “draw box” (Posey, K. and Schreck, C. E, 1981, “An airflow apparatus for selecting female mosquitoes for use in repellent and attraction studies” Mosquito News 41: 566-568; US. Department of Agriculture, 1977, Repellent activity of compounds submitted by Walter Reed Army Institute of Research. Part 1. Protection time and minimum effective dosage against Aedes aegypti mosquitoes. Tech. Bull. No. 1549) and were placed in cages at an approximate density 200 mosquitoes/cage. Repellency was determined according to a standard protocol (Bernier, U. R., et al, 2022. “Evaluation and application of repellent-treated uniform/clothing and textiles against vector mosquitoes,” In Advances in Arthropod Repellents (pp. 69-94). Academic Press) and reported as the minimum effective dosage (MED). […] A nylon leg stocking was placed over the arm to prevent direct contact of the repellent-treated cloth patch with the skin. […]. Cloth was treated by placing a rolled bandage (50 cm^2) into each vial containing 1 mL of solution and allowing the patch to absorb the solution completely. The cloth was taped over a 4 by 9-cm opening cut into a vinyl plastic sheet that was draped around the volunteers' arms and taped in place. The cloth was air-dried approximately 15 min before conducting each test. The work reported here is an average of the MED for at least three volunteers. Each volunteer covered his or her arm with a nylon stocking to avoid contact between the skin and the treated cloth and wore a rubber glove to prevent mosquito bites on the hand.
. The minimum effective dose (MED) was determined for each repellent and subject, defined as the lowest concentration that prevents biting). MEDs from each subject were pooled and reported as the average among all replicates/subjects with SEM. A minimum of 3 replicates were performed on at least three human subjects. Written informed consent was obtained for all human subjects used in this study in accordance with IRB protocol #20193320, as approved by the WCG™ IRB.
Statistical Analyses: Student's T-test was used to compare the means between tested compound and DEET and Icaridin in the arm-in-cage in vivo assay and neurophysiological study.

[2] = tested on: female Aedes aegypti adults; assay: High-throughput in vitro screening assay, spatial repellency; type: in vivo; conditions: for 30-minute RD50 compared with that of DEET: 30 minutes, α = 0.05; for RD50 (30 min), half-repellent dose / RD50 (60 min), half-repellent dose: dose per filter paper surface area, 95% CI; for spatial repellency (in words): highest-tested dose of 100 μg/cm^2
From the text: A high-throughput screening method for evaluating spatial repellency and vapor toxicity, described by Jiang S., et al. (2019, “High-Throughput Screening Method for Evaluating Spatial Repellency and Vapour Toxicity to Mosquitoes,” Med. Vet. Entomol. 33: 388-396), was used for this study. As shown in FIG. 2 of Jiang S., et al., assay tubes were constructed by covering 12.5 cm glass tubes on one side with netting secured by a rubber band. The tubes were used in horizontal orientation. Adult mosquitos 2-7 days old were anesthetized on ice for approximately 5 minutes and 16 females were transferred to each tube. The other end of the tube was then closed with netting and a rubber band.
The conical ends of 50 mL centrifuge tubes (Eppendorf, Enfield, Connecticut, USA) were cut at approximately the 10 mL mark to create the end caps for the assay tubes. […] For repellency tests, filter papers for the “untreated” side of the assay tube received pure acetone, whereas filter papers for the “treated” side received acetone solution containing a dissolved compound of interest. For knockdown tests, both filter papers were treated with acetone solution containing one or more compounds of interest. Acetone on both filter papers served as negative controls.
For repellency assays, filter papers were given 10 minutes of evaporation time before being placed into the end caps with forceps (Jiang S., et al. 2019, Supra). For knockdown assays, filter papers were given 5 minutes of evaporation time before being placed into the end caps. […] Assay tubes were capped such that the cap securely overlapped the glass but approximately 5 mm of space was left between the netting and the filter paper so that the mosquitos could not contact the filter paper.
Assay tubes were placed on a white polystyrene platform with wooden sticks glued flatly across it to prevent the tubes from rolling. A straight black line was drawn down the center of the platform and assay tubes were centered on the line at the beginning of the tests. In repellency assays, data were collected at 15, 30, and 60 minutes after the end caps were placed on the assay tubes. Assay tubes were not disturbed for the entire 60 minutes. At each time point, the number of mosquitos that remained on the treated side was visually assessed and recorded. The treated side was alternated with each set of tests. For repellency tests, DEET at a dose of 100 μg/cm^2 served as the positive control.
For the high-throughput in vitro screening assays, analyses were conducted with R version 4.2.2 statistical software (R Core Team, 2022, “R: a language and environment for statistical computing. R foundation for statistical computing,” Vienna, Austria). Concentrations were calculated in terms of filter paper surface area (μg/cm^2) for repellency assays and in terms of assay tube volume (μg/cm^3) for knockdown assays.
Half-repellent (RD50), half-knockdown (KD50), and half-lethal (LD50) doses were calculated from dose-response curves (DRCs) obtained by four-parameter log-logistic equation models generated using the drc package (Dose Response Curve Analyses Software; Ritz C. et al., 2015, “Dose-response analysis using R,” PLOS ONE 10: e0146021). For repellency test analysis, the upper and lower asymptotes for the proportion of mosquitos remaining on the treated side were fixed at 0.5 and 0, respectively. For KD and mortality test analysis, the upper and lower asymptotes for the proportion of mosquitos knocked down or killed were fixed at 1.0 and 0, respectively. To determine whether RD50, KD50, or LD50 values differed across compounds at each timepoint, a joint model assuming different values for each compound and a null model that assumed a single value for all compounds were compared with a likelihood ratio test.

Compound	Minimum Effective Dose (MED) [1]	30-minute RD50 compared with that of DEET [2]	topical repellency (in words) [1]	RD50 (30 min), half-repellent dose [2]	RD50 (60 min), half-repellent dose [2]	spatial repellency (in words) [2]	MED, times lower than the initial screening dose ([1]; relative to initial screening dose of 0.187 mg/cm^2)
C=CCOC(=O)c1ccccc1N [AA, allyl anthranilate]	0.039 mg/cm^2	significantly lower than that of DEET					
O=C(OCc1ccccc1)c1ccccc1 [BB, benzyl benzoate]	>0.187 mg/cm^2		did not show any topical repellencies	>100 μg/cm^2	>100 μg/cm^2	did not show spatial repellencies	
CCOC(=O)c1ccccc1OC [E2MOB, ethyl 2-methoxybenzoate]		significantly lower than that of DEET	did not exhibit topical repellency	8.83 μg/cm^2			
CCOC(=O)c1cccc(N)c1 [E3AB, ethyl 3-aminobenzoate]	0.039 mg/cm^2			>100 μg/cm^2	>100 μg/cm^2	did not show any spatial repellencies	
CCOC(=O)c1ccc(OC)cc1 [E4MOB, ethyl 4-methoxybenzoate]	>0.187 mg/cm^2	significantly lower than that of DEET	did not show any topical repellencies; also recorded: did not exhibit topical repellency				
CCOC(=O)c1ccccc1N [EA, ethyl anthranilate]	0.037 mg/cm^2	significantly lower than that of DEET					
CCOC(=O)c1ccccc1 [EB, ethyl benzoate]	>0.187 mg/cm^2		did not show any topical repellencies	>100 μg/cm^2	>100 μg/cm^2	did not show spatial repellencies	
CCOC(=O)c1ccccc1NC=O [EFA, ethyl N-formylanthranilate]	0.0062 mg/cm^2			>100 μg/cm^2	>100 μg/cm^2	did not show spatial repellencies	30 times
CCC(C)OC(=O)N1CCCCC1CCO (stereo not drawn) [Icaridin, 1-(1-Methylpropoxycarbonyl)-2-(2-hydroxyethyl)piperidine, reference compound]	0.0150±0.004 mg/cm^2 and 0.0150 mg/cm^2						
COC(=O)c1ccccc1S(N)(=O)=O [M2ASB, methyl 2-(aminosulfonyl)benzoate]	>0.187 mg/cm^2		did not show any topical repellencies	>100 μg/cm^2	>100 μg/cm^2	did not show spatial repellencies	
COC(=O)c1ccccc1Cl [M2CB, methyl 2-chlorobenzoate]	0.164 mg/cm^2	not significantly different from that of DEET	demonstrated repellency at doses lower than 0.187 mg/cm^2 on at least one test subject				
COC(=O)c1ccccc1C [M2MB, methyl 2-methylbenzoate]	0.250 mg/cm^2		demonstrated repellency at doses lower than 0.187 mg/cm^2 on at least one test subject	>100 μg/cm^2	>100 μg/cm^2	did not show spatial repellencies	
COC(=O)c1cccc(C)c1 [M3MB, methyl 3-methylbenzoate]	0.219 mg/cm^2		demonstrated repellency at doses lower than 0.187 mg/cm^2 on at least one test subject	>100 μg/cm^2	>100 μg/cm^2	did not show spatial repellencies	
COC(=O)c1cccc(OC)c1 [M3MOB, methyl 3-methoxybenzoate]	0.266 mg/cm^2	not significantly different from that of DEET	demonstrated repellency at doses lower than 0.187 mg/cm^2 on at least one test subject				
COC(=O)c1ccc(N)cc1 [M4AB, methyl 4-aminobenzoate]	>0.187 mg/cm^2		did not show any topical repellencies	>100 μg/cm^2	>100 μg/cm^2	did not show spatial repellencies	
COC(=O)c1ccc(Cl)cc1 [M4CB, methyl 4-chlorobenzoate]	>0.187 mg/cm^2		did not show any topical repellencies	>100 μg/cm^2	>100 μg/cm^2	did not show spatial repellencies	
COC(=O)c1ccc(O)cc1 [M4HB, methyl 4-hyhroxylbenzoate]	>0.187 mg/cm^2		did not show any topical repellencies	>100 μg/cm^2	>100 μg/cm^2	did not show spatial repellencies	
COC(=O)c1ccc(C)cc1 [M4MB, methyl 4-methylbenzoate]	>0.187 mg/cm^2		did not show any topical repellencies	>100 μg/cm^2	>100 μg/cm^2	did not show spatial repellencies	
CNc1ccccc1C(=O)OC [MMA, methyl N-methylanthranilate]		significantly lower than that of DEET					
CC(C)COC(=O)c1ccccc1N [iBA, iso-butyl anthranilate]		not significantly different from that of DEET					
CCCCOC(=O)c1ccccc1N [nBA, n-butyl anthranilate]				>100 μg/cm^2		did not show any spatial repellencies	
